Assay results as given in paper PMC12656327 (Pharmaceutics, 2025).
Values joined by “and” are separate entries in the source; they are usually repeats but may differ in a detail not shown here. Equal entries are not always repeated. Where two headings read alike, the source gives them in different places.

Experiments:
[1] = NO release, Griess assay (phosphate buffer pH 7.4 with L-cysteine); assay type: physicochemical; details: for NO Released (%) 1 h: 1 h incubation, expressed as % NO2− (μmol/μmol), Griess assay, physiological conditions, furoxan 100 µM; for NO Released (%) 24 h: 24 h incubation; for NO Released (%) 24 h / NO Released (%) 48 h: % NO2− (μmol/μmol); for NO Released (%) 48 h: 48 h incubation; for NO-donor ranking (in words): among all tested compounds
[2] = system: MRC-5 (human embryonic lung fibroblast) cells; assay: MTT cytotoxicity, MRC-5 cells, 72 h; assay type: cell-based; details: MRC5, 72 h exposure
AB1 cells [3] = assay: NO release in vitro in AB1 cells (Griess reagent); assay type: cell-based, mouse; details: 25 μM, 24 h, relative to untreated cells
[4] = system: AB1 (mouse malignant mesothelioma) cells; assay: cells; details: AB1, 72 h, read-out: IC50 AB1
[5] = system: JU77 (human malignant mesothelioma) cells; assay: cells; details: 72 h, read-out: IC50 JU77
[6] = system: JU77 (human malignant mesothelioma) cells; details: for SF JU77 (selectivity factor): ratio of the IC50 value in MRC-5 to that in JU77
AB1 and JU77 cell lines [7] = assay: cells; details: MPM, 72 h, read-out: IC50 (cytotoxicity) in both MPM cell lines
[8] = system: AB1 (mouse malignant mesothelioma) cells
AB1 cells [9] = assay: JC-1 assay of mitochondrial membrane potential; assay type: cell-based, mouse; details: for mitochondrial membrane depolarization (in words): 25 µM; for JC-1 Aggregates / JC-1 Monomers: representative dot plot
AB1 and JU77 cell lines [10] = system: AB1 and JU77 cell lines
[11] = Stability in DMSO-d6 by 1H NMR spectroscopy; assay type: physicochemical; details: DMSO-d6, 1H NMR spectra after 1, 20, 48 and 120 h
From the text: For the synthesis of the target bis(1,2,4-oxadiazolyl)furoxans, we employed a synthetic approach based on the reaction of readily available furoxanylbis(amidoxime) 1c with in situ activated carboxylic acids, except for compound 2a, which was synthesized using orthoformate in the presence of boron trifluoride etherate. Specifically, activation of the corresponding carboxylic acid with 1,1′-carbonyldiimidazole, followed by the addition of bis(amidoxime) 1c and 1,4-diazabicyclo [2.2.2]octane (DABCO) as a base to promote the heterocyclization step, afforded the desired heterocyclic assemblies 2b–l (Scheme 1, Figures S1–S24). […] The stability of the synthesized heterocyclic compounds was further examined in DMSO-d6 via ^1H NMR spectroscopy. The representative compound 2j was completely stable in solution for at least 120 h. The corresponding set of ^1H NMR spectra recorded for 2j after 1, 20, 48, and 120 h is provided in the (supporting information (SI) Figure S25).
Figure S25. Stability of the representative compound 2j for 1 h, 20 h, 48 h and 120 h in DMSO -[d6] according to 1H NMR spectroscopy.
(1 picture or pasted object on this page, not shown here)

AB1 cells [12] = assay: Annexin V/PI assay, flow cytometry; assay type: cell-based, mouse; details: 25 µM, 24 h
[13] = set-up: method as in PMID 40006597; details: % NO2− (μmol/μmol), cited from earlier work; for NO Released (%) 1 h: 1 h incubation; for NO Released (%) 24 h: 24 h incubation; for NO Released (%) 48 h: 48 h incubation
[14] = system: AB1 (mouse malignant mesothelioma) cells; set-up: method as in PMID 40006597; details: MTT, 72 h exposure; cited from earlier work
[15] = system: JU77 (human malignant mesothelioma) cells; set-up: method as in PMID 40006597; details: MTT, 72 h exposure; cited from earlier work
[16] = system: MRC-5 (human embryonic lung fibroblast) cells; set-up: method as in PMID 40006597; details: MTT, 72 h exposure; cited from earlier work
[17] = positive control, 20 μM, 30 min

## O=[N+]([O-])c1ccc(-c2nc(-c3no[n+]([O-])c3-c3noc(-c4ccc([N+](=O)[O-])cc4)n3)no2)cc1 [2b]
[1]
  NO Released (%) 1 h: 38 ± 3%
  NO Released (%) 24 h: 46 ± 1%
  NO Released (%) 48 h: 48 ± 2%
[2]
  IC50: > 25 µM
AB1 cells [3]
  intracellular NO release (in words): minimal NO release
[4]
  IC50: > 25 µM
[5]
  IC50: > 25 µM

## O=[N+]([O-])c1cccc(-c2nc(-c3no[n+]([O-])c3-c3noc(-c4cccc([N+](=O)[O-])c4)n3)no2)c1 [2c]
[1]
  NO Released (%) 1 h: 37 ± 1%
  NO Released (%) 24 h: 49 ± 2%
  NO Released (%) 48 h: 63 ± 2%
[2]
  IC50: 27.9 ± 4.6 µM
[6]
  SF JU77 (selectivity factor): 3.8
[4]
  IC50: 19.9 ± 4.3 µM
[5]
  IC50: 7.3 ± 1 µM

## O=[N+]([O-])c1ccccc1-c1nc(-c2no[n+]([O-])c2-c2noc(-c3ccccc3[N+](=O)[O-])n2)no1 [2d]
[1]
  NO Released (%) 1 h: 54 ± 14%
  NO Released (%) 24 h: 69 ± 14%
  NO Released (%) 48 h: 72 ± 13%
[2]
  IC50: 16.8 ± 5.7 µM
AB1 cells [3]
  intracellular NO release (in words): highest levels of intracellular NO
[6]
  SF JU77 (selectivity factor): 5.7
[4]
  IC50: 11.2 ± 2 µM
[5]
  IC50: 3 ± 0.4 µM
AB1 and JU77 cell lines [7]
  IC50: 3 to 14 µM

## [O-][n+]1onc(-c2noc(-c3ccccc3)n2)c1-c1noc(-c2ccccc2)n1 [2e]
[1]
  NO Released (%) 1 h: 51 ± 10%
  NO Released (%) 24 h: 61 ± 12%
  NO Released (%) 48 h: 64 ± 2%
[2]
  IC50: 17.7 ± 3.8 µM
AB1 cells [3]
  intracellular NO release (in words): minimal NO release
[8]
  cytotoxic effects in the AB1 cell line (in words): no cytotoxic effects
[6]
  SF JU77 (selectivity factor): 1.6
[4]
  IC50: 33.9 ± 3.4 µM
[5]
  IC50: 10.5 ± 0.5 µM

## [O-][n+]1onc(-c2noc(-c3ccncc3)n2)c1-c1noc(-c2ccncc2)n1 [2f]
[1]
  NO Released (%) 1 h: 71 ± 15%
  NO Released (%) 24 h: 94 ± 15%
  NO Released (%) 48 h: 103 ± 14%
  NO-donor ranking (in words): most effective NO donors
[1]; with longer incubation periods
  total amount of released NO: exceeded 100%
[2]
  IC50: 29.9 ± 1.6 µM
AB1 cells [3]
  intracellular NO release (in words): highest levels of intracellular NO and high
AB1 cells [9]; 24 h
  mitochondrial membrane depolarization (in words): markedly higher and relatively comparable levels of depolarization
AB1 cells [9]; 25 μM, 24 h
  JC-1 Aggregates: 87.6%
  JC-1 Monomers: 12.4%
[8]
  increase of cytotoxicity in AB1 cells relative to 2a: 1.4 fold
[6]
  decrease of cytotoxicity in JU77 cells relative to 2a: 1.6 fold
  SF JU77 (selectivity factor): 2.1
[4]
  IC50: 8.5 ± 2.1 µM
[5]
  IC50: 14.1 ± 4.1 µM
AB1 and JU77 cell lines [7]
  IC50: 3 to 14 µM

## Cc1ccc(-c2nc(-c3no[n+]([O-])c3-c3noc(-c4ccc(C)cc4)n3)no2)cc1 [2h]
[1]
  NO Released (%) 1 h: 37 ± 5%
  NO Released (%) 24 h: 52 ± 1%
  NO Released (%) 48 h: 56 ± 1%
[2]
  IC50: > 25 µM
AB1 cells [3]
  intracellular NO release (in words): minimal NO release
[8]
  cytotoxic effects in the AB1 cell line (in words): no cytotoxic effects
[6]
  SF JU77 (selectivity factor): >1.6
AB1 and JU77 cell lines [10]
  cytotoxicity (in words): lacked cytotoxic effects
[4]
  IC50: > 25 µM
[5]
  IC50: 16 ± 3.9 µM

## COc1ccc(-c2nc(-c3no[n+]([O-])c3-c3noc(-c4ccc(OC)cc4)n3)no2)cc1 [2i]
[1]
  NO Released (%) 1 h: 75 ± 1%
  NO Released (%) 24 h: 78 ± 5%
  NO Released (%) 48 h: 89 ± 3%
  NO-donor ranking (in words): most effective NO donors
[2]
  IC50: > 25 µM
AB1 cells [3]
  intracellular NO release (in words): minimal NO release
[8]
  cytotoxic effects in the AB1 cell line (in words): no cytotoxic effects
AB1 and JU77 cell lines [10]
  cytotoxicity (in words): lacked cytotoxic effects
[4]
  IC50: > 25 µM
[5]
  IC50: > 25 µM

## COc1ccc(-c2nc(-c3no[n+]([O-])c3-c3noc(-c4ccc(OC)c(OC)c4)n3)no2)cc1OC [2j]
[1]
  NO Released (%) 1 h: 35 ± 2%
  NO Released (%) 24 h: 37 ± 3%
  NO Released (%) 48 h: 39 ± 5%
[2]
  IC50: 25.7 ± 8.7 µM
[11]
  time completely stable in solution: at least 120 h
[6]
  SF JU77 (selectivity factor): 1.3
[4]
  IC50: 21.7 ± 4.5 µM
[5]
  IC50: 19.7 ± 2.1 µM

## [O-][n+]1onc(-c2noc(-c3ccccc3Cl)n2)c1-c1noc(-c2ccccc2Cl)n1 [2k]
[1]
  NO Released (%) 1 h: 37 ± 5%
  NO Released (%) 24 h: 41 ± 8%
  NO Released (%) 48 h: 43 ± 7%
[2]
  IC50: 7.8 ± 2.3 µM
AB1 cells [3]
  intracellular NO release (in words): low
AB1 cells [9]; 24 h
  mitochondrial membrane depolarization (in words): least mitochondrial damage
AB1 cells [9]; 25 μM, 24 h
  JC-1 Aggregates: 96.3%
  JC-1 Monomers: 3.7%
AB1 cells [12]
  induction of apoptosis/necrosis (in words): did not induce significant cancer cell death
[4]
  IC50: 15.5 ± 3 µM
[5]
  IC50: 4.9 ± 1.2 µM

## NC(=O)c1c(CO)no[n+]1[O-] [CAS-1609, 3-carbamoyl-4-(hydroxymethyl)furoxan]
[13]
  NO Released (%) 1 h: 27% and 27 ± 3%
  NO Released (%) 24 h: 68 ± 6%
  NO Released (%) 48 h: 73 ± 6%

## N#CC(C#N)=NNc1cccc(Cl)c1 [CCCP, carbonyl cyanide 3-chlorophenylhydrazone, reference compound]
AB1 cells [9]; [17]
  JC-1 Aggregates: 30.1%
  JC-1 Monomers: 69.9%

## CCOc1no[n+]([O-])c1S(=O)(=O)c1ccccc1 [CHF-2363, 4-ethoxy-3-phenylsulfonylfuroxan]
[13]
  NO Released (%) 1 h: 26% and 26 ± 10%
  NO Released (%) 24 h: 71 ± 4%
  NO Released (%) 48 h: 77 ± 9%

## N.N.[Cl][Pt][Cl] [Cisplatin, cisplatin]
[14]
  IC50: 5.8 ± 1 µM
[15]
  IC50: 4.2 ± 0.5 µM
[16]
  IC50: 3.1 ± 1.2 µM
